# Results published in article PMC2063170, “A phase I clinical and pharmacokinetic study of the new topoisomerase inhibitor GI147211 given as a 72-h continuous infusion” (British Journal of Cancer, 1998).
# Several values for one entry are separate records, joined by “and”; a condition that tells them apart may be missing. Equal entries are not always repeated.
# How the values were obtained:
# refractory solid tumours = test: Anti-tumour activity in phase I patients; assay type: in vivo
# Excerpt: Brrtish Joumal of Cancer(1998) 78(10). 1329-1336 @ 1998 Cancer Research Campaign A phase I clinical and pharmacokinetic study of the new topoisomerase inhibitor G1147211 given as a 72-h continuous infusion L Paz-Aresl*, R Kunkal 2, D DeMarial-3, J Cassidy' 4, M Alden3, P Beranek2, S Kaye', D Littlefield2, D Reilly3, S Depee2, P Wissel2, C Twelves' and P O'Dwyer3 CRC Department of Medical Oncology. University of Glasgow. Westem Infirmary Hospital. Glasgow Gll 6NT. UK; 2Glaxo Wellcome Research. Five Moore Drive. Research Triangle Park. NC 27709. USA; 'Fox Chase Cancer Center. 7701 Burholme Avenue. Philadelphia, PA 19111. USA: 4Thomas Jefferson University. Kimmel Cancer Institute. Bluemle Life Sciences Building. 233 S. 10th Street. Suite 502. Philadelphia. PA 19107. […] This study was designed to determine the maximum tolerated dose of Gl147211 as a 72-h infusion and to describe its pharmacokinetics and pharmacodynamics on this schedule. In a single-arm, rising-dose study in patients with advanced cancer, eight cohorts of three or more patients received 72-h infusions of G1147211 at doses ranging from 0.25 to 2.5 mg m-2 day-'. […] Whole-blood G1147211 lactone, total blood and total concentrations were measured during and over the 12 h following the infusion. […] Extensive phase 11 evaluation of this compound and further phase I trials evaluating more prolonged infusions are ongoing. Keywords: G1147211: GG211: camptothecin analogues: topoisomerase I inhibitor; phase I trial; pharmacokinetics: pharmacodynamics: continuous infusion GI 147211 (7-4 methyl piperazinomethilene)- 10.1 1 -ethylenedioxy - 20-(S camptothecin: Figure 1) is a totally synthetic analogue of camptothecin. a natural product isolated from Camptotheca acuminata (WAall et al. 1966: Emerson et al. 1995). […] The nuclear enzyvme DNA topoisomerase I. x hich relaxes DNA supercoils arising during, replication and gene tran- scription. has been identified as the specific targret of camptothecin (Hsianer and Liu. 1988: Wall and Wani. 1995).
# [1] = system: neutrophils and platelets; test: Pharmacodynamics: sigmoid Emax (Hill) fit of % decrease in neutrophils or platelets vs lactone Css; assay type: in vivo, patients; settings: sigmoid Emax model
# Excerpt: Brrtish Joumal of Cancer(1998) 78(10). 1329-1336 @ 1998 Cancer Research Campaign A phase I clinical and pharmacokinetic study of the new topoisomerase inhibitor G1147211 given as a 72-h continuous infusion L Paz-Aresl*, R Kunkal 2, D DeMarial-3, J Cassidy' 4, M Alden3, P Beranek2, S Kaye', D Littlefield2, D Reilly3, S Depee2, P Wissel2, C Twelves' and P O'Dwyer3 CRC Department of Medical Oncology. University of Glasgow. Westem Infirmary Hospital. Glasgow Gll 6NT. UK; 2Glaxo Wellcome Research. Five Moore Drive. Research Triangle Park. NC 27709. USA; 'Fox Chase Cancer Center. 7701 Burholme Avenue. Philadelphia, PA 19111. USA: 4Thomas Jefferson University. Kimmel Cancer Institute. Bluemle Life Sciences Building. 233 S. 10th Street. Suite 502. Philadelphia. PA 19107. […] This study was designed to determine the maximum tolerated dose of Gl147211 as a 72-h infusion and to describe its pharmacokinetics and pharmacodynamics on this schedule. In a single-arm, rising-dose study in patients with advanced cancer, eight cohorts of three or more patients received 72-h infusions of G1147211 at doses ranging from 0.25 to 2.5 mg m-2 day-'. […] Whole-blood G1147211 lactone, total blood and total concentrations were measured during and over the 12 h following the infusion. […] Extensive phase 11 evaluation of this compound and further phase I trials evaluating more prolonged infusions are ongoing. […]
# [2] = system: colon (HT29 and SW480), breast (MX 1), ovarian (SKOV3), prostate (PC3) and lung (H460) carcinoma xenografts; parameters: method as in Emerson et al. 1986. 1993. 1994. 1995; settings: nude mice; ref Emerson et al. 1986. 1993. 1994. 1995; cited from earlier work
compound,measurement,setting,value
"CC[C@@]1(O)C(=O)OCc2c1cc1n(c2=O)Cc2c-1nc1cc3c(cc1c2CN1CCN(C)CC1)OCCO3 [GI147211, 7-4 methyl piperazinomethilene)-10.1 1-ethylenedioxy - 20-(S camptothecin]",Number of minor responses,refractory solid tumours; 44 patients,two
same,Number of partial responses,refractory solid tumours; 44 patients,Three
same,Duration of partial response,"refractory solid tumours; individual patients (breast, ovarian, colorectal cancer)",8 weeks and 30 weeks and ≥ 34 weeks
same,Decrease in hepatic lesions,refractory solid tumours; patient with colorectal cancer,44%
same,Decrease in hepatic lesions,refractory solid tumours; patient with hepatoma,36%
same,"EC50, half-maximal concentration (lactone Css) for % decrease in neutrophils (ANC)",[1],0.75 ng/mL and 0.750 ng/mL
same,"EC50, half-maximal concentration (lactone Css) for % decrease in platelets",[1],1.141 ng/mL
same,Anti-tumour activity in xenografts,[2],confirmed the anti-tumour actixitv
